{"source": "patent US5977174A", "about": "“Cholinergic compositions and uses thereof” (Neuromedica, Inc., priority 1997, dated 1999)", "key": {"[1]": {"test_system": "locomotor activity of mice", "test": "Locomotor activity study (dose-response of DHA-choline-induced locomotor depression)", "format": "in vivo, male Swiss-Webster mice (Hsd:ND4)", "details": "20 min pretreatment", "method": "A dose-response study of DHA-choline-induced locomotor depression was conducted using 40 Digiscan locomotor activity testing chambers (40.5×40.5×30.5 cm) housed in sets of two, within sound attenuating chambers. A panel of infrared beams (16 beams) and corresponding photo detectors were located in the horizontal direction along the sides of each activity chamber. A 7.5W incandescent light above each chamber provided dim illumination. Fans provided an 80-dB ambient noise level within the chamber. Separate groups of 8 non-habituated male Swiss-Webster mice (Hsd:ND4, aged 2-3 mo.) were injected via the intraperitoneal route (i.p.) with either vehicle or DHA-choline (0.5, 2.5, 5, 10, 20 or 40 mg/kg), 20 minutes prior to locomotor activity testing. In all studies, the total distance (cm traversed in the horizontal plane) was measured for 2 hours within 10 min periods.\nThe figures show the dose response data for the locomotor activity (Stewart et al., Psychopharmacol 60:281, 1979) of mice injected with different doses of the compound. The figures show average distance per 10 min as a function of time (FIG. 1) and dose (FIG. 2) 20 minutes following DHA-choline pretreatment. The period 0-30 min was selected for analysis of dose-response data because this is the time period in which DHA-choline produced maximal effects. […]"}, "[2]": {"test_system": "rat brain", "test": "Infarct volume after MCA occlusion of rat brain (triphenyltetrazolium chloride staining)", "format": "in vivo", "details": "50 mg/kg i.p. at three hours after initiation of the stroke event; n=5", "method": "Two sets of experiments were carried out. In the first set, rats were administered with 50 mg/kg of DHA-choline i.p. at 30 minutes prior to occlusion of the middle cerebral artery of the left side of the brain using a standard highly reproducible animal model of stroke (Karpiak et al., J. Neurosci Res.30:512-520, 1991). Occlusion of the middle cerebral artery inhibits blood flow to a major portion of the left cortical and subcortical regions of the brain. After a two hour period, the occluded blood vessel was opened to allow reperfusion of the brain, and anesthesia was terminated. Each animal received additional doses of 50 mg/kg of DHA-choline 24 and 48 hours later.\nThe animals were sacrificed, perfused with formalin fixative, brains were sliced into seven 2 mm thick coronal sections, and stained with triphenyltetrazolium chloride (Watson et al., J. Neurosci. Methods 53:203-208, 1994). In this test, tissue that contains intact mitochondria stains red, whereas dead tissue with damaged mitochondria picks up no stain and remains white. Each unstained area on the left side of a section was measured and compared to the total area of the control non-occluded right side of the same section of the brain. The area of damaged (white) brain tissue cells was calculated as a percent of the intact right side of a section. […] (n=5 per group.) […]"}, "[3]": {"test": "Solubility", "format": "physicochemical", "details": "for solubility: read-out: Solubility: amount dissolved in 1.0 mL; for Solubility in solvents: organic solvents, water"}, "[4]": {"test": "Stability", "format": "physicochemical", "method": "The compound should be kept at -20° C. under Argon."}, "[5]": {"details": "animal models, clinical trials; cited from earlier work"}, "[6]": {"details": "models of aging; cited from earlier work"}, "[7]": {"details": "cited from earlier work"}}, "note": "Where two headings read alike, the source gives them in different places."}
{"compound": "CC/C=C\\C/C=C\\C/C=C\\C/C=C\\C/C=C\\C/C=C\\CCC(=O)OCC[N+](C)(C)C", "note": "[DHA-choline, Docosahexaenoyl Choline Iodide]", "values": [{"measurement": "ED50", "setting": "[1]; Mus musculus, ip, 0-30 min period, maximal depressant activity = 0 cm/30 min, read-out: ID50 dose producing 1/2 maximal depressant activity (locomotor activity)", "result": 12.9, "unit": "mg/kg"}, {"measurement": "time period of maximal effects", "setting": "[1]; i.p.", "result": "0 to 30", "unit": "min"}, {"measurement": "infarct volume relative to vehicle controls", "setting": "[2]", "result": "approximately 50%"}, {"measurement": "solubility", "setting": "[3]; 1.0 mL ascorbic acid in saline with 0.02 mL detergent", "result": 5500, "unit": "µg/mL"}, {"measurement": "solubility", "setting": "[3]; 10% albumin saline with detergent, 1.0 mL 10% albumin in saline with 0.01 mL detergent", "result": 7800, "unit": "µg/mL"}, {"measurement": "Solubility in solvents", "setting": "[3]", "result": "soluble in CH2 Cl2, CHCl3, EtOAc, EtOH insoluble in hexanes, Et2 O"}, {"measurement": "Stability in air (1H NMR analysis)", "setting": "[4]; exposed in the air for 5 days", "result": "had not decomposed"}, {"measurement": "Stability on long exposure to air", "setting": "[4]; exposed in the air for too long", "result": "will decompose"}]}
{"compound": "CC/C=C\\C/C=C\\C/C=C\\C/C=C\\C/C=C\\C/C=C\\CCC(=O)OCCN(C)C", "note": "[2-dimethylaminoethyl docosahexaenoate]", "values": [{"measurement": "Solubility in solvents", "setting": "[3]", "result": "soluble in EtOAc, Et2 O, CH2 C2, CHCl3, EtOH insoluble in H2 O"}, {"measurement": "Stability in air (appearance)", "setting": "[4]; exposed in the air for several days", "result": "turns dark when exposed in the air for several days"}]}
{"compound": "C[N+](C)(C)CCOP(=O)(O)OP(=O)([O-])OC[C@H]1O[C@@H](n2ccc(N)nc2=O)[C@H](O)[C@@H]1O", "note": "[CDP-choline, Cytidine 5'-diphosphocholine]", "values": [{"measurement": "neuroprotective effect", "setting": "[5]", "result": "neuroprotective effect"}, {"measurement": "effect on memory and learning deficits", "setting": "[6]", "result": "improves memory and learning deficits"}]}
{"compound": "CC/C=C\\C/C=C\\C/C=C\\C/C=C\\C/C=C\\C/C=C\\CCC(=O)O", "note": "[DHA, cis-docosahexaenoic acid]", "values": [{"measurement": "stability in the presence of oxygen", "setting": "[7]", "result": "can be unstable in the presence of oxygen"}]}
